The subject of assay [1] is Acinetobacter baumannii BAA 747. The class given is cell-based. As to conditions: BAA 747, 18 h. Here is the method: (§1) The minimal inhibitory concentration (MIC) and minimal bactericidal concentration (MBC) values of the peptides were determined by established protocols to evaluate their antimicrobial activities ([Lin et al., 2021]). The MIC value was the lowest concentration of a peptide that inhibits visible bacterial growth after incubating 18 h (CLSI standard). Once the MIC values were determined, an aliquot from the bacterial culture exposed to the peptide at or above its MIC value was inoculated on a Mueller Hinton agar (MHA) and was incubated at 37 for 18 h (CLSI standard). The MBC value was the lowest concentration of a peptide that kills 99.9% of bacteria. Antimicrobial activities of synthetic peptides were assessed by determination of MIC and MBC values using eight kinds of bacteria and yeast: Gram-positive bacteria, Staphylococcus aureus ATCC 6538 (S. aureus 6538), Methicillin-resistant Staphylococcus aureus NCTC 12493 (MRSA 12493), and Enterococcus faecalis NCTC 12697 (E. faecium 12697); Gram-negative bacteria, Escherichia coli ATCC 8739 (E. coli 8739), Pseudomonas aeruginosa ATCC CRM 9027 (P. aeruginosa 9027), Klebsiella pneumoniae ATCC 43816 (K. pneumoniae 43816), and Acinetobacter baumannii BAA 747 (A. baumannii 747); and pathogenic yeast, Candida albicans ATCC 10231 (C. albicans 10231).

Assay [2] relates to Candida albicans ATCC 10231. The class given is cell-based. As to conditions: ATCC 10231, 18 h. Here is the method:
as §1

Assay [3] concerns Escherichia coli ATCC 8739. The class given is cell-based. As to conditions: ATCC 8739, 18 h. Here is the method:
as §1

Assay [4] deals with Klebsiella pneumoniae ATCC 43816. The class given is cell-based. As to conditions: ATCC 43816, 18 h. As to the method: as §1
Assay [5] relates to Methicillin-resistant Staphylococcus aureus NCTC 12493. The class given is cell-based. As to conditions: NCTC 12493, 18 h. As to the method:
as §1

Assay [6] concerns Pseudomonas aeruginosa ATCC CRM 9027. The class given is cell-based. As to conditions: ATCC CRM 9027, 18 h. As to the method:
as §1

Assay [7] concerns Staphylococcus aureus ATCC 6538. The class given is cell-based. As to conditions: ATCC 6538, 18 h. Here is the method:
as §1

The subject of a further assay is E. faecium 12697. The class given is cell-based, Enterococcus faecalis NCTC 12697 (E. faecium 12697). As to conditions: 12697, 18 h. Here is the method:
as §1

Converted amounts (≈) assume the structure as drawn. Positions of bridges follow the written chain, without caps; N, C: chain ends. Residues, ends and D or L forms follow the SMILES beside them.

Take `CC[C@H](C)[C@H](NC(=O)[C@H](CCCCN)NC(=O)[C@H](CCCCN)NC(=O)[C@H](CC(C)C)NC(=O)[C@@H](NC(=O)[C@H](CCCCN)NC(=O)[C@H](C)NC(=O)[C@H](C)NC(=O)[C@@H](NC(=O)CNC(=O)[C@H](C)NC(=O)[C@@H](NC(=O)[C@@H](NC(=O)[C@@H]1CCCN1C(=O)[C@H](Cc1ccccc1)NC(=O)[C@@H](N)Cc1ccccc1)[C@@H](C)CC)C(C)C)C(C)C)C(C)C)C(=O)N[C@@H](Cc1ccccc1)C(=O)N[C@H]1CSSC[C@@H](C(=O)O)NC(=O)[C@H](CCCNC(=N)N)NC(=O)[C@H](CCCNC(=N)N)NC(=O)[C@H](CO)NC(=O)[C@H]([C@@H](C)CC)NC(=O)[C@H]([C@@H](C)O)NC1=O` [brevinin-1pl-2R] (H-FFPIVAGVAAKVLKKIFCTISRRC-OH; disulfide 18-24): the MBC is 16 µM (≈ 42.7 µg/mL) in assay [1]; over 128 µM in assay [2]; 4 µM (≈ 10.7 µg/mL) in assay [3]; 8 µM (≈ 21.3 µg/mL) in assay [4]; 2 µM (≈ 5.33 µg/mL) in assay [5]; 8 µM (≈ 21.3 µg/mL) in assay [6]. Also, the MBC in assay [7] was 2 µM (≈ 5.33 µg/mL); in the assay on E. faecium 12697, 4 µM (≈ 10.7 µg/mL). The MIC is 8 µM (≈ 21.3 µg/mL) in assay [1]; over 128 µM in assay [2]; 4 µM (≈ 10.7 µg/mL) in assay [3]; 8 µM (≈ 21.3 µg/mL) in assay [4]; 2 µM (≈ 5.33 µg/mL) in assay [5]; 8 µM (≈ 21.3 µg/mL) in assay [6]. Besides, the MIC amounted to 2 µM (≈ 5.33 µg/mL) in assay [7] and 4 µM (≈ 10.7 µg/mL) against E. faecium 12697.
As to `CC[C@H](C)[C@H](NC(=O)[C@H](CCCNC(=N)N)NC(=O)[C@H](CCCNC(=N)N)NC(=O)[C@H](CC(C)C)NC(=O)[C@@H](NC(=O)[C@H](CCCNC(=N)N)NC(=O)[C@H](C)NC(=O)[C@H](C)NC(=O)[C@@H](NC(=O)CNC(=O)[C@H](C)NC(=O)[C@@H](NC(=O)[C@@H](NC(=O)[C@@H]1CCCN1C(=O)[C@H](Cc1ccccc1)NC(=O)[C@@H](N)Cc1ccccc1)[C@@H](C)CC)C(C)C)C(C)C)C(C)C)C(=O)N[C@@H](Cc1ccccc1)C(=O)N[C@H]1CSSC[C@@H](C(=O)O)NC(=O)[C@H](CCCNC(=N)N)NC(=O)[C@H](CCCNC(=N)N)NC(=O)[C@H](CO)NC(=O)[C@H]([C@@H](C)CC)NC(=O)[C@H]([C@@H](C)O)NC1=O` [brevinin-1pl-5R] (H-FFPIVAGVAARVLRRIFCTISRRC-OH; disulfide 18-24), the MBC was 32 µM (≈ 88 µg/mL) in assay [1]; over 128 µM in assay [2]; 8 µM (≈ 22 µg/mL) in assay [3]; 16 µM (≈ 44 µg/mL) in assay [4]; 2 µM (≈ 5.5 µg/mL) in assay [5]; 16 µM (≈ 44 µg/mL) in assay [6]. The MBC (in assay [7]; in the assay on E. faecium 12697) was 2 µM (≈ 5.5 µg/mL) in each case. Further, the MIC is 16 µM (≈ 44 µg/mL) in assay [1]; over 128 µM in assay [2]; 8 µM (≈ 22 µg/mL) in assay [3]; 16 µM (≈ 44 µg/mL) in assay [4]; 2 µM (≈ 5.5 µg/mL) in assay [5]; 16 µM (≈ 44 µg/mL) in assay [6]. Besides, the minimal inhibitory concentration (MIC) (in assay [7]; in the assay on E. faecium 12697) was 2 µM (≈ 5.5 µg/mL) in each case.
For `CC[C@H](C)[C@H](NC(=O)[C@H](CCCCN)NC(=O)[C@H](CCCCN)NC(=O)[C@H](CC(C)C)NC(=O)[C@@H](NC(=O)[C@H](CCCCN)NC(=O)[C@H](C)NC(=O)[C@H](C)NC(=O)[C@@H](NC(=O)CNC(=O)[C@H](C)NC(=O)[C@@H](NC(=O)[C@H](CCCCN)NC(=O)[C@@H]1CCCN1C(=O)[C@H](Cc1ccccc1)NC(=O)[C@@H](N)Cc1ccccc1)C(C)C)C(C)C)C(C)C)C(=O)N[C@@H](Cc1ccccc1)C(=O)N[C@H]1CSSC[C@@H](C(=O)O)NC(=O)[C@H](CCCCN)NC(=O)[C@H](CCCCN)NC(=O)[C@H](CO)NC(=O)[C@H]([C@@H](C)CC)NC(=O)[C@H]([C@@H](C)O)NC1=O` [brevinin-1pl-6K] (H-FFPKVAGVAAKVLKKIFCTISKKC-OH; disulfide 18-24), the MBC is 16 µM (≈ 42 µg/mL) in assay [1]; over 128 µM in assay [2]; 4 µM (≈ 10.5 µg/mL) in assay [3]; 8 µM (≈ 21 µg/mL) in assay [4]; 4 µM (≈ 10.5 µg/mL) in assay [5]; 8 µM (≈ 21 µg/mL) in assay [6]. For the same compound, the MBC stood at 4 µM (≈ 10.5 µg/mL) in assay [7] and 16 µM (≈ 42 µg/mL) against E. faecium 12697. Besides, the minimum inhibitory concentration (MIC) in assay [1] is 16 µM (≈ 42 µg/mL); in assay [2], over 128 µM; in assay [3], 4 µM (≈ 10.5 µg/mL); in assay [4], 8 µM (≈ 21 µg/mL); in assay [5] it was 4 µM (≈ 10.5 µg/mL); in assay [6], 8 µM (≈ 21 µg/mL). Further, the MIC came to 4 µM (≈ 10.5 µg/mL) in assay [7] and 16 µM (≈ 42 µg/mL) with E. faecium 12697.
As to `CC[C@H](C)[C@H](NC(=O)[C@H](CCCCN)NC(=O)[C@H](CCCCN)NC(=O)[C@H](CC(C)C)NC(=O)[C@@H](NC(=O)[C@H](CCCCN)NC(=O)[C@H](C)NC(=O)[C@H](C)NC(=O)[C@@H](NC(=O)CNC(=O)[C@H](C)NC(=O)[C@@H](NC(=O)[C@@H](NC(=O)[C@@H]1CCCN1C(=O)[C@H](Cc1ccccc1)NC(=O)[C@@H](N)Cc1ccccc1)[C@@H](C)CC)C(C)C)C(C)C)C(C)C)C(=O)N[C@@H](Cc1ccccc1)C(=O)N[C@H]1CSSC[C@@H](C(=O)O)NC(=O)[C@H](CCCCN)NC(=O)[C@H](CCCCN)NC(=O)[C@H](CO)NC(=O)[C@H]([C@@H](C)CC)NC(=O)[C@H]([C@@H](C)O)NC1=O` [brevinin-1pl] (H-FFPIVAGVAAKVLKKIFCTISKKC-OH; disulfide 18-24), the MBC was 16 µM (≈ 41.8 µg/mL) in assay [1]; over 128 µM in assay [2]; 4 µM (≈ 10.4 µg/mL) in assay [3]; 8 µM (≈ 20.9 µg/mL) in assay [4]; 2 µM (≈ 5.22 µg/mL) in assay [5]; 16 µM (≈ 41.8 µg/mL) in assay [6]. Besides, the MBC in assay [7] is 2 µM (≈ 5.22 µg/mL); in the assay on E. faecium 12697, 4 µM (≈ 10.4 µg/mL). The minimal inhibitory concentration (MIC) in assay [1] is 8 µM (≈ 20.9 µg/mL); in assay [2], over 128 µM; in assay [3], 4 µM (≈ 10.4 µg/mL); in assay [4], 8 µM (≈ 20.9 µg/mL); in assay [5] it was 2 µM (≈ 5.22 µg/mL); in assay [6] it was 8 µM (≈ 20.9 µg/mL). The MIC in assay [7] was found to be 2 µM (≈ 5.22 µg/mL); with E. faecium 12697, 4 µM (≈ 10.4 µg/mL).

The MIC is the least concentration at which growth counts as inhibited. Read a high MIC as weaker potency.

The values above are taken from article PMC12127288, “Engineering of antimicrobial peptide Brevinin-1pl: arginine, lysine, and histidine substitutions enhance antimicrobial-anticancer efficacy with reduced cytotoxicity” (Frontiers in Chemistry, 2025).
